Reference: patent US8158621B2, “Methods of treating or preventing autoimmune diseases with 2,4-pyrimidinediamine compounds” (Rigel Pharmaceuticals, Inc., priority 2002, dated 2012)
Values joined by “and” are separate entries in the source; they are usually repeats but may differ in a detail not shown here. Identical values can stand only once.

Columns and labels:
[1] = tested on: Primary T-cells; experiment: Primary T-cell cytokine production (αCD3/αCD28): IFNg; assay type: cell-based, human; settings: read-out: 1° T-Cell IFNg IC50
Description: (§1) 2E8-4E8 PBMC or proliferating T cells grown in rIL-2 from healthy human donors were suspended in PBS were spun down (1500 rpm, 8-10 minutes) and resuspended in 100 ml RPMI Complete media (1% Pen-Strep, 1% L-Glutamine, 10 mM HEPES). The cells were plated in T175 flasks (37° C., 5% CO2) and monocytes were allowed to adhere for 2-3 hours. After monocyte attachment, non-adherent cells were harvested, counted by hemocytometer, washed several times with PBS then resuspended in Yssels Complete Media (Modified IMDM Media with 1% Human AB Serum, 1% Pen-Strep, 1% L-Glutamine, 10 mM HEPES) at […]. 90 uL of the cell dilution were then added to compounds diluted to 2× in Yssel's media and incubated for 30 minutes at 37° C. (5% CO2). After this preincubation step the compound/cell mixture was transferred to stimulation plates, as described below.
(§2) Stimulation plates were prepared by coating 96 well plates with 5 μg/ml αCD3 (BD PharMingen, Catalog #555336)+10 μg/ml αCD28 (Beckman Coulter, Catalog #IM1376) in PBS (no Ca^2+/Mg^2+) at 37° C. (5% CO2) for at 3-5 hours. After incubation with the stimulation antibodies, the cocktail was removed and the plates washed 3 times with PBS prior to addition of the primary T cell/compound mixture.
(§3) The compound/cell mixture was transferred to the stimulation plates and incubated for 18 hr at 37° C. (5% CO2). After the cell stimulation, ˜150 μl supernatant were transferred from each well into 96-well filter plates (Coming PVDF Filter Plates) spun down (2000 rpm, 2-3 minutes) and either used immediately for ELISA or LUMINEX measurements or frozen down at −80° C. for future use.
(§4) Luminex immunoassay multiplexing for TNF, IL-2, GMSCF, IL-4 and IFNg was performed essentially as described by the manufacturer (Upstate Biotechnology). Essentially 50 uL of sample was diluted into 50 uL assay diluent and 50 uL incubation buffer, then incubated with 100 uL of the diluted detection antibody for 1 hr at RT in the dark. The filter plate was washed 2× in Wash Buffer, then incubated with 100 uL of the diluted secondary reagent (SAV-RPE) for 30 min at RT in the dark. Finally the plates were washed 3 times and bead identification and RPE fluorescent measured by the Luminex instrument.
(§5) Varied concentrations of compound were compared to solvent only to determine the inhibition of T-cell activation IC50 of each compound.

[2] = tested on: Primary T-cells; experiment: Primary T-cell cytokine production (αCD3/αCD28): IL-4; assay type: cell-based, human; settings: read-out: 1° T-Cell IL4 IC50
Description: as §1, §2, §3, §4, §5

[3] = Mouse Reverse Passive Arthus reaction (RPA reaction); assay type: in vivo, C57BL/6 mice; settings: oral
Method in brief: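 C57BL/6 mice dosed with compound before challenge, pretreatment time set by each compound's PK; rabbit anti-OVA IgG (50 μg/mouse) given intradermally, then ovalbumin 20 mg/kg i.v. with 1% Evans blue. Dorsal skin edema and hemorrhage read by dye extravasation at 4 h; purified polyclonal rabbit IgG as control.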

[4] = tested on: IgE-induced degranulation of tissue mast cells; experiment: Mouse model of passive cutaneous anaphylaxis (PCA); assay type: in vivo; settings: for Plasma level: duration of action (TABLE 4): PO, 1.5% Avicel/water, 200 mg/kg
Method in brief: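 Mice were sensitized intradermally with anti-DNP IgE on Day −1 and dosed with test agent on Day 0. They were then challenged i.v. with HSA-DNP plus Evans blue. Mast cell degranulation was quantified as dye leakage into tissue, extracted with formamide and read at 620 nm.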

[5] = tested on: FcγRI-mediated degranulation; experiment: FcγRI-mediated degranulation (anti-human IgG Fab activation); assay type: cell-based; settings: cells not primed with IgE, activated with rabbit anti-human IgG Fab fragment

Nc1cccc(Nc2ncc(F)c(Nc3cccc(N)c3)n2)c1 [Compound R921302]
IC50 [1]: 3900 nM | IC50 [2]: 245 nM | inhibition of edema formation ([3]; 50 mg/kg, 60 minutes prior to Ab/Ag challenge): 49.9% | % inhibition to vehicle control Edema Size ± SEM ([3]; 50 mg/kg, pretreatment time 1 hrs): 50.0 ± 6.4% and 49.9% | inhibition of edema (therapeutic) ([3]; 100 mg/kg, 30 minutes post-challenge): 77.5% | inhibition of edema formation ([3]; 100 mg/kg, 60 minutes prior to Ab/Ag challenge): 93.2% | % inhibition to vehicle control Edema Size ± SEM ([3]; 100 mg/kg, pretreatment time 0.5 hrs): 89.44 ± 4.8% | % inhibition to vehicle control Edema Size ± SEM ([3]; 100 mg/kg, pretreatment time 1 hrs): 82.1 ± 10.9% and 92.3 ± 4.2% and 93.2% | inhibition of edema formation ([3]; 200 mg/kg, 60 minutes prior to challenge): 99.1% | % inhibition to vehicle control Edema Size ± SEM ([3]; 200 mg/kg, pretreatment time 1 hrs): 99.1 ± 0.9% and 99.1% | Plasma level ([4]; pretreatment 30 min): 88 µg/mL | Plasma level ([4]; pretreatment 60 min): 53 µg/mL | Plasma level ([4]; pretreatment 120 min): 61 µg/mL | Plasma level ([4]; pretreatment 240 min): 8 µg/mL | FcεR-mediated vascular leakage ([4]; increasing doses): dose-dependent inhibition | inhibition of FcγRI-mediated degranulation [5]: inhibit FcγRI-mediated degranulation
